What was measured:
Assay type in all cases: cell-based
PKR1 [1] = molecular target: T1, PKR1 (Homo sapiens, UniProt Q8TCW9); test: Activation of PKR1 signalling pathway: intracellular calcium measured with Fluo 4-AM in CHO-K1 cells infected with adenovirus carrying PKR1 cDNA; settings: CHO-K1 cells expressing PKR1, Fluo 4-AM fluorescence; Figure 5
T1 construct: expressed in transfected cells; host or cells: CHO-K1 cells, transfected with Lipofectamine2000
Description: CHO-K1 (Chinese Hamster Ovary) cells were infected with a adenovirus carrying PKR1 cDNA. Cells were then stimulated, 48h after infection, with or without IS1 agonists, at 37°C. Calcium imaging was conducted essentially as previously described (Horinouchi et al., 2007) In brief, Intracellular free calcium [Ca^2+]i was measured with the fluorescent Ca^2+ indicator dye Fluo 4-AM, the membrane-permeant acetoxymethyl ester form of Fluo 4 (Invitrogen). Changes in [Ca^2+]i were determined from variations in the fluorescence intensity of Fluo 4-AM. Briefly, trypsinized CHO-K1-PKR1 cells were seeded onto glass bottom culture dishes (MatTek, MA, USA) for 24 h. […] The fluorescence in the cells was excited at a wavelength of 488 nm and a series of images (total exposure time: 300 s) were acquired at 0.5s intervals at emission wavelength 518 nm. Data are presented as the fluorescence intensity of 3 randomly chosen cells within a randomly selected 40 × field. To evaluate the effect of IS1 compound on [Ca^2+]i in CHO-K-PKR1, the maximum change in fluorescence intensity upon addition of IS1 was measured and normalized to the baseline fluorescence obtained before IS 1 addition.

PKR1 [2] = molecular target: T1, PKR1; test: PKR1 internalization in CHO-K1 cells transfected with GFP-PKR1, by confocal microscopy; settings: Figure 6
Description: The capacity of agonist compounds to induce internalization of PKR1 was assessed. Therefore, CHO-K1 cells transfected with a plasmid encoding GFP-PKR1 (Green Fluorescent Protein-PKR1), in the presence of Lipofectamine2000 (Invitrogen), were used. Cells were stimulated, 48h after transfection, with or without agonist compound, at 37°C. GFP is a fluorescent protein fusion (26.9 kDa) which has a major excitation peak at a wavelength of 396 nm and a minor one at 472 nm. Its emission peak is at 504 nm which is in the lower green portion of the visible spectrum. Fluorescence allowed tracking the localization of PKR1 after stimulation by the agonist (membrane or subcellular). Cells were seeded in glass-bottom coated with polyL-lysine and receptor studies were performed in the presence of various PKR1-ligands. Samples were observed under a Leica confocal microscope (SP2 AOBS MP) with objective 63× at 37°C. Images were automatically recorded during 20 min, with increasing time intervals to avoid bleaching effects because of repetitive scanning. Reconstituted videos contained 42 images and lasted 2 second.

endothelial cells (H5V) = test: Induction of in vitro angiogenesis: tube formation on Growth Factor Reduced Matrigel; settings: serum free medium, 24h at 37°C, number of branching points, Figures 3 and 4
Description: Coronary endothelial cells (H5V cells) were maintained in DMEM supplemented with 10% heat inactivated Fetal Calf Serum (FCS), glutamine (1mM) under 5% CO2 at 37°C.
In order to evaluate the potential angiogenic activity of the PKR1 agonists, the test of Growth Factor Reduced Matrigel (GFR Matrigel) 24 well plate was performed. Matrigel leads to the differentiation of many cell types and induces the formation and organization of endothelial cells into capillary tubules. Twenty-four-well culture plates were coated with Matrigel and endothelial cells (H5V) were trypsin-harvested and seeded onto the coated plates at 10^5 cells per well in the serum free assay medium with PKR1 agonists, IS1 and prokineticin-2, and incubated at 37°C for 24h. Tube formation as two dimensional branched structures were observed using an inverted phase contrast microscope (Zeiss), and the number of branching points were quantified in per well from each sample. Each experiment was repeated at least three times. Images were captured at a magnification of X10 with a digital microscope camera system (Urayama K et al., 2007).

T1 sequence (Q8TCW9 whole entry): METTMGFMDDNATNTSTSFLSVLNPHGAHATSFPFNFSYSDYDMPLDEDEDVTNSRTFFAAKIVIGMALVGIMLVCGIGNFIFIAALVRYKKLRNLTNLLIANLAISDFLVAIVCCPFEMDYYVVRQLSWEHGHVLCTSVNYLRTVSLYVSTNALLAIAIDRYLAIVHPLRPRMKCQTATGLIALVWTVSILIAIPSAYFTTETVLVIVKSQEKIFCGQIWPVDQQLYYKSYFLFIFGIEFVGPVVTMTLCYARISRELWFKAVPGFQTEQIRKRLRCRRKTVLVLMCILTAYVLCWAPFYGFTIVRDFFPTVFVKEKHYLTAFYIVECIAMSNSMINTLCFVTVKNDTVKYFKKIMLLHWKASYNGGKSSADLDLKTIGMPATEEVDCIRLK

PKR1 internalization (PKR1 [2]; CHO cells GFP-PKR1, 48h after transfection, 37°C): induces its internalization | specificity of interaction with PKR1 (PKR1 [2]; CHO cells GFP-PKR1): specifically interacts with PKR1
Structure (SMILES): O=C(NCc1cccnc1)C(=Cc1ccco1)NC(=O)c1ccccc1 [IS1]
activation of the PKR1 signalling pathway (intracellular calcium release) (PKR1 [1]): able to activate the PKR1 signalling pathway | in vitro angiogenesis (tube-like formation of the endothelial cells on Matrigel) (endothelial cells (H5V)): Induction of in vitro angiogenesis

Reference: EP2468279A1, “Prokineticin 1 receptor agonists and their uses” (Université de Strasbourg, priority 2010, dated 2012)
